From patent US5583127A, “17-iminomethylalkenyl-5 β, 14 β-androstane and 17-iminoalkyl-5 β, 14 β-androstane derivatives active on the cardiovascular system, and pharmaceutical compositions containing same” (Sigma-Tau Industrie Farmaceutiche Riunite S.p.A., priority 1993, dated 1996)
Where two headings read alike, the source gives them in different places.

Assays:
[1] = biological target: Na^+, K^+ -ATPase receptor (Homo sapiens, UniProt P05023); test: displacement of the specific 3H-ouabain binding from the Na+,K+-ATPase receptor
[2] = biological target: purified Na^+,K^+ -ATPase (Homo sapiens, UniProt P05023); test: inhibition of the activity of the purified Na+,K+-ATPase (% hydrolysis of 32P-ATP); format: biochemical; details: read-out: Inhibitory Activity log IC50 (converted)
[3] = displacement of specific 3H-ouabain binding, read-out: Binding ^3 H-Ouab. Displacement log IC50 (converted)

Compound	IC50 [1, 3] [nM]	IC50 ([2]; purified Na+,K+-ATPase) [nM]	IC50 [2] [nM]	IC50 [1] [nM]
C[C@]12CC[C@H](O)C[C@H]1CC[C@@H]1[C@@H]2CC[C@]2(C)[C@@H](CCC=NOCCN)CC[C@]12O (mixture of isomers) [Comp. I-bm, (EZ)-17β-[3-(2-Aminoethoxyimino)propyl]-5β-androstane-3β,14β-diol]	25.1	79.4	–	–
CN(C)CCON=CC[C@H]1CC[C@]2(O)[C@@H]3CC[C@@H]4C[C@H](O)CC[C@]4(C)[C@H]3CC[C@]12C (mixture of isomers) [Comp. I-cm, (EZ)-17β-[2-(2-Dimethylaminoethoxyimino)ethyl]-5β-androstane-3α,14β-diol]	100	–	1000	–
CN(C)CCON=CC[C@H]1CC[C@]2(O)[C@@H]3CC[C@@H]4C[C@@H](O)CC[C@]4(C)[C@H]3CC[C@]12C (mixture of isomers) [Comp. I-bh, (EZ)-17β-[2-(2-Dimethylaminoethoxyimino)ethyl]-5β-androstane-3β,14β-diol]	39.8	631	–	–
CN(C)CCON=C/C=C/[C@H]1CC[C@]2(O)[C@@H]3CC[C@@H]4C[C@@H](OCCN)CC[C@]4(C)[C@H]3CC[C@]12C (mixture of isomers) [Comp. I-cc, 3β-(2-Aminoethoxy)-17β-[3-(EZ)-(2-dimethylaminoethoxyimino)-1-(E)-propenyl]-5_62-androstane-14β-ol]	20	31.6	–	–
C[C@]12CC[C@H](O)C[C@H]1CC[C@@H]1[C@@H]2CC[C@]2(C)[C@@H](CC=NOCCCN)CC[C@]12O (mixture of isomers) [Comp. I-bg, (EZ)-17β-[2-(3-Aminopropoxyimino)ethyl]-5β-androstane-3β,14β-diol]	–	398	–	50.1
C[C@]12CC[C@H](OCCCN)C[C@H]1CC[C@@H]1[C@@H]2CC[C@]2(C)[C@@H](/C=C/C=N/NC(=N)N)CC[C@]12O [qomp. I-cd, (E,E)-3β-(3-Aminopropoxy)-17β-(3-guanidinoimino-1-propenyl)-5β-androstane-3β,14β-diol]	15.8	79.4	–	–
C[C@]12CC[C@H](O)C[C@H]1CC[C@@H]1[C@@H]2CC[C@]2(C)[C@@H](/C=C/C=NOCCNC(=N)N)CC[C@]12O (mixture of isomers) [Comp. I-as, 17β-[3-(EZ)-(2-Guanidinoethoxyimino)-1-(E)-propenyl]-5β-androstane-3β,14β-diol]	–	158	–	100
C[C@]12CC[C@H](O)C[C@H]1CC[C@@H]1[C@@H]2CC[C@]2(C)[C@@H](CCC=NNC(=N)N)CC[C@]12O (mixture of isomers) [Comp. 1-bi, (EZ)-17β-(3-Guanidinoiminopropyl)-5β-androstane-3β,14β-diol]	126	2000	–	–
C[C@]12CC[C@H](O)C[C@H]1CC[C@@H]1[C@@H]2CC[C@]2(C)[C@@H](/C=C/C=N/NC3=NCC(=O)N3)CC[C@]12O [Comp. I-af, (E,E)-17β-[3-(5-Oxo-2-imidazolin-2-yl)hydrazono-1-propenyl]-5β-androstane-3β,14β-diol]	2000	39800	–	–
C[C@]12CC[C@H](O)C[C@H]1CC[C@@H]1[C@@H]2CC[C@]2(C)[C@@H](/C=C/C=N\NC3=NCCCN3)CC[C@]12O [Comp. I-ah, 17β-[3-(Z)-(1,4,5,6-Tetrahydro-2-pyrimidinyl)hydrazono-1-(E)-propenyl]-5β-androstane-3β,14β-diol]	–	–	7940	794
C[C@]12CC[C@H](OCCN3CCCC3)C[C@H]1CC[C@@H]1[C@@H]2CC[C@]2(C)[C@@H](/C=C/C=NNC(=N)N)CC[C@]12O [Comp. I-bx, 3β-[2-(1-Pyrrolidinyl)ethoxy]-17β-(3-(E,Z)-guanidinoimino-1-(E)-propenyl)-5β-androstane-3β,14β-diol]	20	126	–	–
C[C@]12CC[C@H](O)C[C@H]1CC[C@@H]1[C@@H]2CC[C@]2(C)[C@@H](CC=NNC(=N)N)CC[C@]12O (mixture of isomers) [Comp. I-bc, (EZ)-17β-(2-Guaidinoimino)ethyl-5β-androstane-3β,14β-diol]	79.4	398	–	–
C[C@]12CC[C@H](O)C[C@H]1CC[C@@H]1[C@@H]2CC[C@]2(C)[C@@H](/C=C/C=N/NC(=N)Nc3ccccc3)CC[C@]12O [Comp. I-aj, (E,E)-17β-[3-(3-Phenyl)guanidinoimino-1-propenyl]-5β-androstane-3β,14β-diol]	1000	–	10000	–
CN(C)CCO/N=C/C=C/[C@H]1CC[C@]2(O)[C@@H]3CC[C@@H]4C[C@H](O)CC[C@]4(C)[C@H]3CC[C@]12C [Comp. I-ck, (E,E)-17β-[3-(2-Dimethylaminoethoxyimino)-1-propenyl]-5β-androstane-3α,14β-diol]	–	63.1	–	50.1
CN(C)CCCON=C/C=C/[C@H]1CC[C@]2(O)[C@@H]3CC[C@@H]4C[C@@H](O)CC[C@]4(C)[C@H]3CC[C@]12C (mixture of isomers) [Comp. I-ar, 17β-[3-(3-(EZ)-Dimethylaminopropoxyimino)-1-(E)-propenyl]-5β-androstane-3β,14β-diol]	63.1	126	–	–
C[C@]12CC[C@H](O)C[C@H]1CC[C@@H]1[C@@H]2CC[C@]2(C)[C@@H](/C=C/C=N/NC(N)=S)CC[C@]12O [Comp. I-al, (E,E)-17β-(3-Thiosemicarbazono-1-propenyl)-5β-androstane-3β,14β-diol]	3980	39800	–	–
C[C@]12CC[C@H](O)C[C@H]1CC[C@@H]1[C@@H]2CC[C@]2(C)[C@@H](/C=C/C=N/OCCCN)CC[C@]12O [Comp. I-ap, (E,E)-17β-[3-(3-Aminopropoxyimino)-1-propenyl]-5β-androstane-3β,14β-diol]	–	100	–	50.1
C[C@]12CC[C@H](O)C[C@H]1CC[C@@H]1[C@@H]2CC[C@]2(C)[C@@H](/C=C/C=NOCCCNC(=N)N)CC[C@]12O (mixture of isomers) [Comp. I-at, 17β-[3-(EZ)-(3-Guanidinopropoxyimino)-1-(E)-propenyl]-5β-androstane-3β,14β-diol]	158	316	–	–
C[C@]12CC[C@H](O)C[C@H]1CC[C@@H]1[C@@H]2CC[C@]2(C)[C@@H](/C=C/C=N/OCCN)CC[C@]12O [Comp. I-ao, (E,E)-17β-[3-(2-Aminoethoxyimino)-1-propenyl]-5β-androstane-3β,14β-diol]	15.8	20	–	–
C[C@]12CC[C@H](O)C[C@H]1CC[C@@H]1[C@@H]2CC[C@]2(C)[C@@H](/C=C/C=C/C=N/NC3=NCCCN3)CC[C@]12O [Comp. I-aw, (E,E,E)-17β-[5-(1,4,5,6-Tetrahydro-2-pyrimidinyl)hydrazono-1,3-pentadienyl]-5β-androstane-3β,14β-diol]	–	–	15800	–
C[C@]12CC[C@H](O)C[C@H]1CC[C@@H]1[C@@H]2CC[C@]2(C)[C@@H](/C=C/C=N/NC3=NCCN3)CC[C@]12O [Comp. I-ac, (E,E)-17β-[3-(2-Imidazolin-2-yl)hydrazono-1-propenyl]-5β-androstane-3β,14β-diol]	–	–	–	50.1
C[C@]12CC[C@H](O)C[C@H]1CC[C@@H]1[C@@H]2CC[C@]2(C)[C@@H](/C=C/C=N\NC3=NCCN3)CC[C@]12O [Comp. I-ad, 17β-[3-(Z)-(2-Imidazolin-2-yl)hydrazono-1-(E)-propenyl]-5β-androstane-3β,14β-diol]	–	–	–	631
C[C@]12CC[C@H](O)C[C@H]1CC[C@@H]1[C@@H]2CC[C@]2(C)[C@@H](/C=C/C=C/C=N/N=C(N)N)CC[C@]12O [Comp. I-au]	501	–	–	–
